Biological target: T1, lipid A 4′ kinase (Escherichia coli, UniProt P27300)
T1 construct: The first primer introduces a Nde I site at the start codon of orfE, and the second primer introduces a BamHl site downstream of the stop codon; made in house; host or cells: E. coli BLR(DE3)pLysS/pJK2 (pET3a, T7 promoter); Controls with chromosomal kinase only: BR7 membranes and BLR(DE3)pLysS/pET3a fractions
Experiment: 4′ kinase assay method II ([γ-32P]ATP donor, lipid acceptor, TLC)
Format: biochemical, E. coli
Conditions: for utilisation as substrate of the 4′ kinase (in words): recombinant, overexpressed 4′ kinase (BLR(DE3)pLysS/pJK2 membranes); for 32P from input [γ-32P]-ATP incorporated into 4′-phosphorylated product (yield): 0.6 μM [γ-32P]ATP, 100 μM lipid acceptor, 10 min, 30° C.
Procedure: FIG. 12: Effective phosphorylation of DS-1-P and DS-1-P analogs with recombinant, overproduced 4′ kinase. Washed membranes from strain BR7 and BLR(DE3)pLysS/pJK2 were used, as indicated, in 4′ kinase assays containing 100 μM of the indicated DS-1-P analog, 0.6 μM [γ-^32P] ATP, 50 mM Tris, pH 8.5, 5 mM MgCl2, 1% NP-40, 1 mg/ml cardiolipin and 0.5 mg/ml washed membranes. After a 10 minute incubation at 30° C., 5 μl of the reaction was spotted onto a Silica Gel 60 TLC plate and developed in chloroform:pyridine:formic acid:water (30:70:16:10 v/v). The plate was dried, exposed to a PhosphorImager screen and visualized using ImageQuant software. Arrows indicate the products of the reactions. If the native substrate DS-1-P is present in the reaction, [4′-^32P]-lipid IVA is formed. When 3-aza-DS-1-P, base-treated DS-1-P, or base-treated 3-aza-DS-1-P are present, 4′ phosphorylated products a, b and c are formed, respectively. The migration of each of these products is slower than the non-phosphorylated substrate analog, consistent with the phosphate incorporation. As in FIG. 9, BLR/pJK2 is an abbreviation for BLR(DE3)pLysS/pJK2, and NE indicates the no enzyme control. […] Minor ^32P containing lipids generated by membranes of BLR(DE3)pLysS/pJK2 in the absence of any acceptor substrate arise by the action of diglyceride kinase on endogenous glycerophospholipids (see especially Lane 6). The diglyceride kinase is inactivated by mutation in strain BR7 (Hampton et al, Methods in Enzymology 209:466 (1992)).
Assays for 4′ kinase activity. Two methods for analyzing 4′ kinase activity of various protein fractions were employed. The first (method I) utilizes DS-1-^32P as the labeled substrate. Typically, 100 μM DS-1-^32P (1000 cpm/nmol), 1 mg/ml cardiolipin, 50 mM Tris, pH 8.5, 5 mM ATP, 1% NP-40, and 5 mM MgCl2 are mixed with 0.5-500 μg/ml protein fraction and incubated at 30° C. for various times. Reactions were stopped by spotting a portion of the reaction onto a Silica Gel 60 thin layer chromatography plate. Plates were developed in chloroform:methanol:water:acetic acid (25:15:4:2, v/v) and analyzed as described above. Method II (which is not intended for the quantitative determination of specific activities) utilizes [γ-^32P] ATP (˜8×10^6 cpm/nmol) as the labeled substrate. The reaction conditions are exactly the same as for method I except that the ATP concentration is lowered to 0.6 μM and only non-radioactive DS-1-P (final concentration of 100 μM) is added. The reactions were stopped as described above, and plates were developed in chloroform:pyridine:formic acid:water (30:70:16:10, v/v).
Each lipid analog was tested as a 4′ kinase substrate using recombinant, overexpressed 4′ kinase in conjunction with the method II assay conditions (0.6 μM [γ-^32P]-ATP as the phosphate donor and 100 μM lipid acceptor). DS-1-P becomes phosphorylated to form [4′-^32P]-lipid IVA by BR7 membranes (containing wild-type kinase levels), but only with a yield of ˜0.5% (FIG. 11, lane 2). When BLR(DE3)pLysS/pJK2 membranes are used (FIG. 12, lane 7) more than 50% of the ^32P is incorporated into [4′-^32P]-lipid IVA. […] Products (b) and (c) are formed from base-treated DS-1-P and base treated 3-aza-DS-1-P, respectively.

T1 sequence (P27300 whole entry): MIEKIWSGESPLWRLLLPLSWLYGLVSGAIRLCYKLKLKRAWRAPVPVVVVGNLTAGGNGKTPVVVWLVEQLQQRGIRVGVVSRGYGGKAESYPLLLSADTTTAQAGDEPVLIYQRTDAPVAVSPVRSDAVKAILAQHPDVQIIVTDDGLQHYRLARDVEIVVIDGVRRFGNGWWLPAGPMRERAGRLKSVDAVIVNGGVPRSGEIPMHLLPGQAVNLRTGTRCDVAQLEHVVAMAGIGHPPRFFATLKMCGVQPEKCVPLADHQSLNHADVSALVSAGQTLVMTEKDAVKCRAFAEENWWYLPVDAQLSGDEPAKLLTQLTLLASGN

Row | Compound | utilisation as substrate of the 4′ kinase (in words) | 32P from input [γ-32P]-ATP incorporated into 4′-phosphorylated product (yield) (BLR(DE3)pLysS/pJK2 membranes (recombinant, overexpressed 4′ kinase)) | 32P from input [γ-32P]-ATP incorporated into 4′-phosphorylated product (yield) (BR7 membranes (wild-type kinase levels))
1 | 2,3-diacyl-glucosamine-1-phosphate [Lipid X] | not substrates |  | 
2 | CCCCCCCCCCC[C@@H](O)CC(=O)N[C@H]1[C@H](OC[C@H]2O[C@H](OP(=O)(O)O)[C@H](NC(=O)C[C@H](O)CCCCCCCCCCC)[C@@H](OC(=O)C[C@H](O)CCCCCCCCCCC)[C@@H]2O)O[C@H](CO)[C@@H](O)[C@@H]1OC(=O)C[C@H](O)CCCCCCCCCCC [DS-1-P, tetraacyldisaccharide-1-phosphate] | large amount | more than 50% | ~0.5%
3 | UDP-2,3-diacyl-glucosamine [UDP-diacylglucosamine] | not substrates |  | 
